System: HH patients
Experiment: Phase 2 open-label dose-finding study in hereditary hemochromatosis patients
Type: in vivo, human
Protocol: A clinical efficacy study was conducted in HH patients. Subjects received subcutaneous Compound 25 for up to 24 weeks. Subjects were started at an initial dose of 10 mg per week subcutaneously. The dose was increased to 20 mg per week, and subsequently to 40 mg and to 80 mg per week as needed, based on tolerability and the pharmacodynamic marker TSAT. In addition, subcutaneous dosing schedules of 10 mg, 20 mg, 30, and 40 mg twice weekly (Day 1 and either Day 4 or Day 5 were tested). The majority of patients were administered doses of 20 mg per week or less. Subjects' safety and blood iron parameters (serum iron, serum ferritin, transferrin, and TSAT) were collected to monitor the pharmacodynamic effect of Compound 25. Effects on phlebotomy need and QoL data (36-Item Short Form Health Survey [SF-36], and Patient's Global Impression of Change [PGI-C]) were also be collected and tabulated.
Individual subject's dose and schedule were determined based on the pharmacodynamic (PD) marker TSAT measured at two time points following dosing: once at peak PD effect one day post dose and once at trough PD effect. […] The trough PD effect was the TSAT value measured 7 days after the Compound 25 dose (and before the next dose) for once weekly dosing or 7 days after the first dose in a week for twice weekly dosing. […] To facilitate dose escalation and the identification of a therapeutic dose, investigators assessed TSAT values on days subjects came to the clinic for any dose adjustments.
Methods: This single-arm, open-label, dose-finding phase 2 study investigated subcutaneous hepcidin mimetic (Compound 25) in patients (pts) with confirmed HH who were on documented stable phlebotomies (phl) for at least 6 months (mos) prior to treatment with a phl frequency of 0.25-1 per month. […] Endpoints included TSAT, serum iron, serum transferrin and serum ferritin, liver iron content (LIC) measured by FerriScan MRI, adverse events, and patient-reported outcomes on the Patient Global Impression of change (PGI-C) and Medical Outcome Study Questionnaire Short Form Health Survey (SF-36). […]

- hematological parameters (hematocrit, erythrocytes, leucocytes, platelets) (human, in vivo): no notable changes
SMILES: CCCCCCCCCCCCCCCC(=O)N[C@@H](CCC(=O)NCCCC[C@@H]1NC(=O)[C@H]([C@@H](C)CC)NC(=O)[C@@H](NC(=O)[C@@H]2CCCN2C(=O)[C@H](Cc2ccccc2)NC(=O)[C@H](Cc2c[nH]cn2)NC(=O)[C@@H](NC(=O)[C@H](CC(=O)O)NC(=O)CC(C)C)[C@@H](C)O)CSSC[C@@H](C(=O)N[C@@H](CCCCN)C(N)=O)NC(=O)CNC(=O)[C@H](CCCCN)NC(=O)[C@H](CO)NC(=O)[C@H](CCCNC(=N)N)NC(=O)[C@@H]2CCCN2C(=O)[C@H](CCC(=O)O)NC(=O)[C@H](Cc2ccccc2)NC1=O)C(=O)O [Compound 25, Isovaleric acid-DTHFPCI(K(isoGlu-Palm))FEPRSKGCK-NH2]
- tolerability (HH patients, subcutaneous, up to 24 weeks): generally well tolerated
- treatment-related adverse events, severity (all treatment-related adverse events): CTCAE grade 1 or 2

From patent US20240293511A1, “HEPCIDIN MIMETICS FOR TREATMENT OF HEREDITARY HEMOCHROMATOSIS” (Protagonist Therapeutics, Inc., priority 2021, published 2024)
